Laboratory results as given in the NIST ThermoML archive (doi:10.1016/j.tca.2014.05.034).
± gives the expanded uncertainty stated by the source.

What was measured:
[1] = 100 kPa, Liquid; for kinematic viscosity: Capillary tube (Ostwald / Ubbelohde) method; for mass density: Pycnometric method
[2] = xn = mol fraction of the nth substance listed; details: 100 kPa, Liquid, x2 = 0; for kinematic viscosity: Capillary tube (Ostwald / Ubbelohde) method; for mass density: Pycnometric method

| SMILES | kinematic viscosity ([1]; 298.15 K) [m2/s] | mass density ([1]; 298.15 K) [kg/m3] | kinematic viscosity ([1]; 303.15 K) [m2/s] | mass density ([1]; 303.15 K) [kg/m3] | kinematic viscosity ([1]; 308.15 K) [m2/s] | mass density ([1]; 308.15 K) [kg/m3] | kinematic viscosity ([1]; 313.15 K) [m2/s] | mass density ([1]; 313.15 K) [kg/m3] | kinematic viscosity ([1]; 318.15 K) [m2/s] | mass density ([1]; 318.15 K) [kg/m3] | kinematic viscosity ([2]; 298.15 K) [m2/s] | mass density ([2]; 298.15 K) [kg/m3] | kinematic viscosity ([2]; 303.15 K) [m2/s] | mass density ([2]; 303.15 K) [kg/m3] | kinematic viscosity ([2]; 308.15 K) [m2/s] | mass density ([2]; 308.15 K) [kg/m3] | kinematic viscosity ([2]; 313.15 K) [m2/s] | mass density ([2]; 313.15 K) [kg/m3] | kinematic viscosity ([2]; 318.15 K) [m2/s] | mass density ([2]; 318.15 K) [kg/m3] |
| --- | --- | --- | --- | --- | --- | --- | --- | --- | --- | --- | --- | --- | --- | --- | --- | --- | --- | --- | --- | --- |
| OCCOCCO [diethylene glycol] | 2.47e-05 ± 2e-07 | 1112.8 ± 0.7 | 1.96e-05 ± 2e-07 | 1109.2 ± 0.7 | 1.53e-05 ± 1e-07 | 1105.6 ± 0.7 | 1.29e-05 ± 1e-07 | 1102.3 ± 0.7 | 1.1e-05 ± 1e-07 | 1099.2 ± 0.7 | – | – | – | – | – | – | – | – | – | – |
| OCCOCCO [diethylene glycol] + NCCN | – | – | – | – | – | – | – | – | – | – | 2.47e-05 ± 2e-07 | 1112.8 ± 0.7 | 1.96e-05 ± 2e-07 | 1109.2 ± 0.7 | 1.53e-05 ± 1e-07 | 1105.6 ± 0.7 | 1.29e-05 ± 1e-07 | 1102.3 ± 0.7 | 1.1e-05 ± 1e-07 | 1099.2 ± 0.7 |
| NCCN [ethane-1,2-diamine] | 1.56e-06 ± 1e-08 | 893.3 ± 0.7 | 1.39e-06 ± 1e-08 | 888.8 ± 0.7 | 1.27e-06 ± 1e-08 | 884.9 ± 0.7 | 1.17e-06 ± 1e-08 | 880 ± 0.7 | 1.08e-06 ± 1e-08 | 875.2 ± 0.7 | – | – | – | – | – | – | – | – | – | – |
